# Data from patent US20180194762A1 (Pharmacyclics LLC, priority 2017, published 2018).
# Like-named read-outs stand apart in the source and are kept apart here.
# How the values were obtained:
# Type in all cases: biochemical
# [1] = molecular target: T1, Btk (Homo sapiens, UniProt Q06187); assay: Btk in vitro inhibitory activity (one of Method A TR-FRET, Method B electrophoretic mobility shift, Method C radiometric filter binding)
# T1 construct: purified from insect cells as a full-length construct containing a N-terminal 6X-His tag; His6 (N); made in house; host or cells: insect cells (Method C)
# Summary of the method: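 Method A: TR-FRET with 0.5 nM Btk at [ATP]=Km, EDTA-quenched, 665/615 nm ratio; Ki(app) converted to IC50. Method B: 1 nM full-length His6 human BTK, 1 μM FAM peptide, pH 7.5, mobility-shift product/sum ratio, 12-point 4-parameter fit. Method C: radiometric filter binding, 8 nM His-tagged BTK, 0.2 mg/mL poly-Glu-Tyr.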
# [2] = molecular target: T2, TEC (Homo sapiens, UniProt P42680); assay: Inhibition of a panel of kinases (in vitro HotSpot kinase assay, 33P-ATP, 1 μM ATP); details: for IC50: HotSpot kinase assay, 1 μM ATP; for TEC/Btk: ratio of TEC IC50 to Btk IC50 (selectivity)
# T2 sequence (P42680 1-631): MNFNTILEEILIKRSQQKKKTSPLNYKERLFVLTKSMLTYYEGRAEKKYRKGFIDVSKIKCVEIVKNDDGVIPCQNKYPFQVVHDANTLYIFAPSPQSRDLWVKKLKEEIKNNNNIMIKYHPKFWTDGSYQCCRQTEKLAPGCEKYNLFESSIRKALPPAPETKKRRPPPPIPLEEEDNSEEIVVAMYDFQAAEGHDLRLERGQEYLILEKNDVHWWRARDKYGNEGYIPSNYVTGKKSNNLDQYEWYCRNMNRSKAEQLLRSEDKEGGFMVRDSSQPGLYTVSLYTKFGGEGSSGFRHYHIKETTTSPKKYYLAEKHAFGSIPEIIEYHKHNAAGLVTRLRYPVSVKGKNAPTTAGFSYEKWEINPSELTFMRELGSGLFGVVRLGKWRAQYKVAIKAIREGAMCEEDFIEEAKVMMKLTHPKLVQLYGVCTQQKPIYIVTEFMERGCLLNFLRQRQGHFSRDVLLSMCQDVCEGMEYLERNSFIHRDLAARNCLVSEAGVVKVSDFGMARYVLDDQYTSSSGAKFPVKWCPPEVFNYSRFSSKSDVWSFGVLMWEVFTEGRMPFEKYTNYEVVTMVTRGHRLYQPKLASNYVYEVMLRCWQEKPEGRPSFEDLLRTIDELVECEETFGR
# Summary of the method: (§1)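 Purified kinase enzymes were incubated with an appropriate substrate and 33P-labelled ATP at 1 μM ATP. Inhibition was measured radiometrically from incorporation of the 33P label.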
# [3] = molecular target: T3, panel of kinases (Homo sapiens, UniProt P51813); assay: Inhibition of a panel of kinases (in vitro HotSpot kinase assay, 33P-ATP, 1 μM ATP), other kinases; details: BMX wild-type, read-out: BMX-WT IC50
# T3 sequence (P51813 1-675): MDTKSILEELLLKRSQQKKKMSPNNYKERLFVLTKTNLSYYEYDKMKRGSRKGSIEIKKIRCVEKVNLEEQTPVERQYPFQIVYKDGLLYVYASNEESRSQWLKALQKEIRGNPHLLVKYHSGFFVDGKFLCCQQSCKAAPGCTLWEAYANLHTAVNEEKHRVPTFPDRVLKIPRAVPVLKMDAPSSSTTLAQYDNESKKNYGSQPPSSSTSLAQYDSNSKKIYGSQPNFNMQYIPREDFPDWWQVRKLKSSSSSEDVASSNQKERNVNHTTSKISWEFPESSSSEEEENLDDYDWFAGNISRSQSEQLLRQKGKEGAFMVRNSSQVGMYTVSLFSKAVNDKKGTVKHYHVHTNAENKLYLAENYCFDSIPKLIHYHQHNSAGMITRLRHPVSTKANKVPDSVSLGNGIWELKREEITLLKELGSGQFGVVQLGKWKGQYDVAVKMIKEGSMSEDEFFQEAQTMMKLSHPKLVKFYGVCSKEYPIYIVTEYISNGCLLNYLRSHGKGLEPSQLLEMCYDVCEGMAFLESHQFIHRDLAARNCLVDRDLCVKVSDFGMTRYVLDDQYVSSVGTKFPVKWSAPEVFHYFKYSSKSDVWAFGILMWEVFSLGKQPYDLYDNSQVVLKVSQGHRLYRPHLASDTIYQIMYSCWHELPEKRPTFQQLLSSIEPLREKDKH
# Summary of the method: as §1
# [4] = wild-type Btk, read-out: Btk-WT IC50
# [5] = method is one of A, B or C, not stated which, read-out: IC50 values against Btk
# T1 sequence (Q06187 whole entry): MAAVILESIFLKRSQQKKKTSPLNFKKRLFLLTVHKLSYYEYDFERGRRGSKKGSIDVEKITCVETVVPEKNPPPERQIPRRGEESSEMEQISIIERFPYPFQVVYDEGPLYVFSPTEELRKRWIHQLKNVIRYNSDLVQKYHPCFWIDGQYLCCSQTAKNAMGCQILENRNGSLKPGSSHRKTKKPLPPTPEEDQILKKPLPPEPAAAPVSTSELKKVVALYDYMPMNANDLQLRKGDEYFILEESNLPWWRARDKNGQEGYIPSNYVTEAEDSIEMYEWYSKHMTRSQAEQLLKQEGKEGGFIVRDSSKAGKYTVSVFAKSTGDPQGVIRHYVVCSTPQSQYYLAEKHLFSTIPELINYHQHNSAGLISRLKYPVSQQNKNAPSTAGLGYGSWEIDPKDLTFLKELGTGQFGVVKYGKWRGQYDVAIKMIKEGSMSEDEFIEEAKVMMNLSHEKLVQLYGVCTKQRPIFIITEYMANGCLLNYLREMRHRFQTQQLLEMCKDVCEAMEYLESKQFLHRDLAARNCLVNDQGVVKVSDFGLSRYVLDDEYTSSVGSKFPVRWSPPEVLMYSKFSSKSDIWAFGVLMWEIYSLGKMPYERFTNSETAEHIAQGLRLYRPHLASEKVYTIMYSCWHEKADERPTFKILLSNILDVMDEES
"IC50 [1, 4] [nM]",IC50 [2] [nM],IC50 [3] [nM],TEC/Btk [2],"IC50 [1, 5] [nM]",Structure (SMILES)
30.1,8400,4180,–,–,"CC(C)(C)c1nc(C(=O)NCc2ccc(-c3ccnc4[nH]nc(NC5CCNCC5)c34)cc2F)no1 [Example 109, 5-tert-butyl-N-[(2-fluoro-4-{3-[(piperidin-4-yl)amino]-1H-pyrazolo[3,4-b]pyridin-4-yl}phenyl)methyl]-1,2,4-oxadiazole-3-carboxamide]"
0.0423,9.02,15.8,–,–,"C=CC(=O)N(C)[C@@H]1CCN(c2n[nH]c3nccc(-c4ccc(CNC(=O)c5nc(C(C)(C)C)no5)c(F)c4)c23)C1 [Example 347, 3-tert-butyl-N-{[2-fluoro-4-(3-{(3R)-3-[methyl(prop-2-enoyl)amino]pyrrolidin-1-yl}-1H-pyrazolo[3,4-b]pyridin-4-yl)phenyl]methyl}-1,2,4-oxadiazole-5-carboxamide]"
> 10000,3990,4050,–,–,"C=CC(=O)N1CC[C@@H](Nc2n[nH]c3nccc(-c4cccc(-n5ccc6cc(C7CC7)cc(F)c6c5=O)c4COC(C)=O)c23)C1 [Compound 16, [2-(6-cyclopropyl-8-fluoro-1-oxo-1,2-dihydroisoquinolin-2-yl)-6-(3-{[(3R)-1-(prop-2-enoyl)pyrrolidin-3-yl]amino}-1H-pyrazolo[3,4-b]pyridin-4-yl)phenyl]methyl acetate]"
68.2,7940,5390,116,–,"C=CC(=O)N1CC[C@H](Nc2n[nH]c3nccc(-c4ccc(CNC(=O)c5ccc(C(C)(C)C)cc5)c(F)c4)c23)C1 [Compound 44, (S)—N-(4-(3-((1-acryloylpyrrolidin-3-yl)amino)-1H-pyrazolo[3,4-b]pyridin-4-yl)-2-fluorobenzyl)-4-(tert-butyl)benzamide]"
15,217,25,14,–,"C=CC(=O)N1CC[C@@H](Nc2n[nH]c3nccc(-c4ccc(CNC(=O)c5ccccc5)c(F)c4)c23)C1 [Compound 33, (R)—N-(4-(3-((1-acryloylpyrrolidin-3-yl)amino)-1H-pyrazolo[3,4-b]pyridin-4-yl)-2-fluorobenzyl)benzamide]"
30.6,253,55.7,–,–,"C=CC(=O)N1CC[C@@H](Nc2n[nH]c3nccc(-c4ccc(CNC(=O)c5cc(-c6ccccc6)on5)c(F)c4)c23)C1 [Example 345, N-{[2-fluoro-4-(3-{[(3R)-1-(prop-2-enoyl)pyrrolidin-3-yl]amino}-1H-pyrazolo[3,4-b]pyridin-4-yl)phenyl]methyl}-5-phenyl-1,2-oxazole-3-carboxamide]"
4.28,1470,1400,343,–,"CC(=O)N[C@@H]1CCN(c2n[nH]c3nccc(-c4ccc(CNC(=O)c5nc(C(C)C)no5)c(F)c4)c23)C1 [Example 200, N-[(4-{3-[(3R)-3-acetamidopyrrolidin-1-yl]-1H-pyrazolo[3,4-b]pyridin-4-yl}-2-fluorophenyl)methyl]-3-(propan-2-yl)-1,2,4-oxadiazole-5-carboxamide]"
200,2780,875,014,–,"C=CC(=O)N1CC[C@@H](Nc2n[nH]c3nccc(-c4cccc(NC(=O)c5noc(C(C)(C)C)n5)c4)c23)C1 [Example 265, 5-tert-butyl-N-[3-(3-{[(3R)-1-(prop-2-enoyl)pyrrolidin-3-yl]amino}-1H-pyrazolo[3,4-b]pyridin-4-yl)phenyl]-1,2,4-oxadiazole-3-carboxamide]"
1.45,591,1820,408,< 10,"CC(C)(C)c1noc(C(=O)NCc2ccc(-c3ccnc4[nH]nc(N5CC[C@H](N)C5)c34)cc2F)n1 [Example 159, N-[(4-{3-[(3S)-3-aminopyrrolidin-1-yl]-1H-pyrazolo[3,4-b]pyridin-4-yl}-2-fluorophenyl)methyl]-3-tert-butyl-1,2,4-oxadiazole-5-carboxamide]"
> 10000,> 10000,> 10000,>100,–,"C[C@H](NC(=O)c1noc(C(C)(C)C)n1)c1ccc(-c2ccnc3[nH]nc(N[C@@H]4CCNC4)c23)cc1 [Example 72, 5-tert-butyl-N-[(1S)-1-[4-(3-{[(3R)-pyrrolidin-3-yl]amino}-1H-pyrazolo[3,4-b]pyridin-4-yl)phenyl]ethyl]-1,2,4-oxadiazole-3-carboxamide]"
0.664,3040,2040,–,–,"C[C@@H](NC(=O)c1nc(C(C)(C)C)no1)c1ccc(-c2ccnc3[nH]nc(N4CCCCC4)c23)cc1 [Example 384, 3-tert-butyl-N-[(1R)-1-{4-[3-(piperidin-1-yl)-1H-pyrazolo[3,4-b]pyridin-4-yl]phenyl}ethyl]-1,2,4-oxadiazole-5-carboxamide]"
0.0959,220,305,2294,< 10,"C=CC(=O)NC1CCN(c2n[nH]c3nccc(-c4ccc(CNC(=O)c5nc(C(C)(C)C)no5)c(F)c4)c23)CC1 [Example 179, 3-tert-butyl-N-[(2-fluoro-4-{3-[4-(prop-2-enamido)piperidin-1-yl]-1H-pyrazolo[3,4-b]pyridin-4-yl}phenyl)methyl]-1,2,4-oxadiazole-5-carboxamide]"
38.1,713,162,–,–,"C=CC(=O)N1CC[C@@H](Nc2n[nH]c3nccc(-c4ccc(CNC(=O)c5cn6c(C)cccc6n5)c(F)c4)c23)C1 [Example 390, N-{[2-fluoro-4-(3-{[(3R)-1-(prop-2-enoyl)pyrrolidin-3-yl]amino}-1H-pyrazolo[3,4-b]pyridin-4-yl)phenyl]methyl}-5-methylimidazo[1,2-a]pyridine-2-carboxamide]"
1.81,433,435,–,–,"C=CC(=O)N[C@@H]1CCN(c2n[nH]c3nccc(-c4ccc([C@@H](C)NC(=O)c5cc(C(C)(C)O)on5)cc4)c23)C1 [Example 382, 5-(2-hydroxypropan-2-yl)-N-{(1R)-1-[4-(3-{(3R)-3-[(prop-2-enoyl)amino]pyrrolidin-1-yl}-1H-pyrazolo[3,4-b]pyridin-4-yl)phenyl]ethyl}-1,2-oxazole-3-carboxamide]"
1.69,40,73,23,–,"C=CC(=O)N1CC[C@@H](Nc2n[nH]c3nccc(-c4cccc(-n5ccc6cc(C7CC7)cc(F)c6c5=O)c4CO)c23)C1 [Compound 18, 6-cyclopropyl-8-fluoro-2-[2-(hydroxymethyl)-3-(3-{[(3R)-1-(prop-2-enoyl)pyrrolidin-3-yl]amino}-1H-pyrazolo[3,4-b]pyridin-4-yl)phenyl]-1,2-dihydroisoquinolin-1-one]"
436,> 10000,> 10000,>100,–,"CC(C)c1cc(C(=O)NCc2ccc(-c3ccnc4[nH]nc(N[C@@H]5CCCN[C@@H]5C)c34)cc2F)no1 [Example 172, N-{[2-fluoro-4-(3-{[(2R,3R)-2-methylpiperidin-3-yl]amino}-1H-pyrazolo[3,4-b]pyridin-4-yl)phenyl]methyl}-5-(propan-2-yl)-1,2-oxazole-3-carboxamide]"
